Consider eight molecules from ChEMBL document CHEMBL1124500, “New cyclic peptides with cytotoxic activity from the ascidian Lissoclinum patella” (J Med Chem, 1989).

A word on the IC50: it is the concentration at which inhibition is half-maximal. Low readings indicate greater potency, high ones weaker potency.

Assay type in all cases: functional, cell-based
Assay [1] concerns L1210. As to the kind of experiment: Concentration required to cause 50% inhibition against murine leukemia L1210 cell line. To be noted: Mus musculus.
Assay [2] concerns L1210. As to the kind of experiment: Concentration required to cause 50% inhibition against murine leukemia L1210 cell line; 2-4 ug/mL. The note with it: Mus musculus.
Assay [3] concerns MRC5CV1. Description: Cytotoxicity of compound was evaluated by incorporation of [methyl-3H]thymidine into MRC5CV1, a control fibroblast cell line, continuous exposure. The note with it: Homo sapiens.
Assay [4] has as its system T-24. Description: Cytotoxicity of compound was evaluated by incorporation of [methyl-3H]thymidine into T24, a bladder carcinoma cell line, continuous exposure. To be noted: Homo sapiens.
The next assay deals with CCRF-CEM. As to the kind of experiment: Concentration required to cause 50% inhibition against human CEM cell lines.
Assay [5] deals with T-24. Description: Cytotoxicity of compound was evaluated by incorporation of [methyl-3H]thymidine into T24, a bladder carcinoma cell line, for 1 hr exposure. To be noted: Homo sapiens, T-24, 1 h.
The subject of assay [6] is MRC5CV1. Description: Cytotoxicity of compound was evaluated by incorporation of [methyl-3H]thymidine into MRC5CV1, a control fibroblast cell line, for 1 hr exposure. The note with it: Homo sapiens, MRC5CV1, 1 h.

Each structure is given as a SMILES string. Converted amounts (≈) assume the structure as drawn.

Consider `CC(C)[C@@H]1NC(=O)[C@H]2N=C(O[C@@H]2C)[C@@H]2CCCN2C(=O)[C@H](Cc2ccccc2)NC(=O)c2csc(n2)[C@H](Cc2ccccc2)NC(=O)[C@H]2CSC1=N2`, for which, in the assay on L1210 [1], the IC50 was determined as 0.8 µg/mL (≈ 1.08 µM). The same measure, in the same setting: next, `CC[C@@H](C)[C@H]1NC(=O)c2csc(n2)[C@H](C(C)C)NC(=O)[C@H]2N=C(O[C@@H]2C)[C@@H]2CCCN2C(=O)[C@H](Cc2ccccc2)NC(=O)c2csc1n2` [LISSOCLINAMIDE 1]: > 10 µg/mL; `CC[C@@H](C)[C@H]1NC(=O)[C@H]2N=C(O[C@@H]2C)[C@@H]2CCCN2C(=O)[C@H](Cc2ccccc2)NC(=O)c2csc(n2)[C@@H](C)NC(=O)C2CSC1=N2` [LISSOCLINAMIDE 2]: > 10 µg/mL; `CC[C@@H](C)[C@H]1NC(=O)[C@H]2N=C(O[C@@H]2C)[C@@H]2CCCN2C(=O)[C@H](Cc2ccccc2)NC(=O)c2csc(n2)[C@H](C)NC(=O)C2CSC1=N2` [LISSOCLINAMIDE 3]: > 10 µg/mL. As to `CC[C@H](C)[C@@H]1NC(=O)c2csc(n2)[C@@H](C(C)C)NC(=O)[C@H]2N=C(O[C@@H]2C)[C@H]([C@@H](C)CC)NC(=O)c2csc(n2)[C@@H](C(C)C)NC(=O)[C@@H]2COC1=N2` [PATELLAMIDE A], in the assay with L1210 [2], it took 2 µg/mL (≈ 2.69 µM) to reach half-maximal inhibition (IC50). In the assay on L1210 [2], `CC[C@H](C)[C@@H]1NC(=O)c2csc(n2)[C@@H](C)NC(=O)[C@H]2N=C(O[C@@H]2C)[C@H](CC(C)C)NC(=O)c2csc(n2)[C@@H](Cc2ccccc2)NC(=O)[C@H]2N=C1O[C@@H]2C` [PATELLAMIDE B] registered an IC50 of 2 µg/mL (≈ 2.57 µM).

In the case of `CC[C@H](C)[C@@H]1NC(=O)c2csc(n2)[C@@H](C)NC(=O)[C@H]2N=C(O[C@@H]2C)[C@H](C(C)C)NC(=O)c2csc(n2)[C@@H](Cc2ccccc2)NC(=O)[C@H]2N=C1O[C@@H]2C` [PATELLAMIDE C], the IC50 in the assay with L1210 [2] came out at 2 µg/mL (≈ 2.62 µM). As for `CC(C)C[C@H]1NC(=O)[C@H]2N=C(O[C@@H]2C)[C@H]2CSSC[C@@H](NC(=O)c3csc1n3)C1=N[C@H](C(=O)N[C@H](CC(C)C)c3nc(cs3)C(=O)N2)[C@@H](C)O1` [ULITHIACYCLAMIDE], the half-inhibitory concentration (IC50) with MRC5CV1 [3] was found to be 0.04 µg/mL (≈ 0.0524 µM); with T-24 [4] it was 0.1 µg/mL (≈ 0.131 µM); in the assay with CCRF-CEM it was 0.01 µg/mL (≈ 0.0131 µM); in the assay with T-24 [5], 0.15 µg/mL (≈ 0.197 µM); in the assay on L1210 [1], 0.35 µg/mL (≈ 0.459 µM); in the assay on MRC5CV1 [6], 0.22 µg/mL (≈ 0.288 µM).
